Measurements: ChEMBL document CHEMBL3351363 (J Med Chem, 2014)

How the values were obtained:
[1] = molecular target: T1, Muscarinic acetylcholine receptor M1 (Homo sapiens) (UniProt P11229); test: Agonist activity at human M1 receptor expressed in HEK293T cells by BRET based Gq protein activation assay relative to carbachol; format: cell-based; conditions: HEK-293T
T1 sequence (whole entry): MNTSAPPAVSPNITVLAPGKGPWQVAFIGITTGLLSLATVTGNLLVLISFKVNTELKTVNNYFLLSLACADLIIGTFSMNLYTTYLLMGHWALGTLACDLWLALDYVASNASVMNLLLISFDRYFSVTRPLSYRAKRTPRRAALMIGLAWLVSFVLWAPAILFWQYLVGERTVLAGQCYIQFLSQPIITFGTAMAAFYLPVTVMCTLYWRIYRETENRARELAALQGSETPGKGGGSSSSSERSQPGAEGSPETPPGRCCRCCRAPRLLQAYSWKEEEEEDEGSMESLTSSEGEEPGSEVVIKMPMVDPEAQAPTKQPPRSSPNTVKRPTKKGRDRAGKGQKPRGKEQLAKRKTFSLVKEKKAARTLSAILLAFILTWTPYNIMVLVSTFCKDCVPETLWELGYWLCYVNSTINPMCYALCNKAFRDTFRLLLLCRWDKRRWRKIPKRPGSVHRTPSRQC

[2] = molecular target: T2, Muscarinic acetylcholine receptor M4 (Homo sapiens) (UniProt P08173); test: Antagonist activity at human M4 receptor expressed in HEK293T cells assessed as inhibition of carbachol-induced response by BRET based Gi protein activation assay relative to untreated control; conditions: HEK-293T
T2 sequence (whole entry): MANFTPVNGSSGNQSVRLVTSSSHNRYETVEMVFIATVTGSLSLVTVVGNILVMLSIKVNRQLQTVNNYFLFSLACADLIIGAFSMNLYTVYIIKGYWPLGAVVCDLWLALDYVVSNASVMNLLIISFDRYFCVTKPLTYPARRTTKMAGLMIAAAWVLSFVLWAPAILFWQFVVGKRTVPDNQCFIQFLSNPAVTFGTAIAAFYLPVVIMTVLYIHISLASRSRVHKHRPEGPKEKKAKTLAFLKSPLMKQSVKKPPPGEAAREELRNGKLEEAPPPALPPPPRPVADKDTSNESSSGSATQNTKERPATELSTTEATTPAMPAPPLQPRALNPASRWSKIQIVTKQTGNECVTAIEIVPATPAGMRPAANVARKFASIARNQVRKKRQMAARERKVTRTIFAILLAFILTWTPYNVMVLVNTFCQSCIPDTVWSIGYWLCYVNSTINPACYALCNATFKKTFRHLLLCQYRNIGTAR

[3] = molecular target: Muscarinic acetylcholine receptor M3 (Homo sapiens, UniProt P20309); test: Displacement of [3H]NMS from human M3 receptor expressed in CHO cells by microplate scintillation counting based radioligand binding assay; format: cell-based
[4] = molecular target: T3, Muscarinic acetylcholine receptor M1 (Homo sapiens, UniProt P11229)
T3 sequence (P11229 whole entry): T1 sequence (whole entry)

[5] = molecular target: T4, Muscarinic acetylcholine receptor M2 (Homo sapiens, UniProt P08172); test: Displacement of [3H]NMS from human M2 receptor expressed in CHO cells by microplate scintillation counting based radioligand binding assay; format: cell-based
T4 sequence (P08172 whole entry): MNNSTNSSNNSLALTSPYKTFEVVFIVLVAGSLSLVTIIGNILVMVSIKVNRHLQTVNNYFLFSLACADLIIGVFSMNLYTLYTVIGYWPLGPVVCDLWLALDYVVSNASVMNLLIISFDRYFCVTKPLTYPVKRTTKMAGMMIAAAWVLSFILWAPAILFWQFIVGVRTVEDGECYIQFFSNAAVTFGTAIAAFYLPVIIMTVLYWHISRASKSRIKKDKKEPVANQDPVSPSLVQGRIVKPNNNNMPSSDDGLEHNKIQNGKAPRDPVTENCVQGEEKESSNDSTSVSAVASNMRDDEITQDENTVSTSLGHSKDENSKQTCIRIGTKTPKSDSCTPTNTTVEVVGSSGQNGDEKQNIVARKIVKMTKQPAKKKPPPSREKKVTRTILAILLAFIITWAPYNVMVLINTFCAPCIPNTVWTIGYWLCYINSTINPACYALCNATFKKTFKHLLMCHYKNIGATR

[6] = molecular target: T3, Muscarinic acetylcholine receptor M1; test: Positive modulatory activity at human M1 receptor expressed in HEK293T cells assessed as effect on carbachol-induced response by BRET based Gq protein activation assay; format: cell-based, HEK-293T
[7] = molecular target: T2, Muscarinic acetylcholine receptor M4 (Homo sapiens); test: Antagonist activity at human M4 receptor expressed in HEK293T cells assessed as inhibition of carbachol-induced response by BRET based Gq protein engagement assay relative to untreated control; format: cell-based; conditions: HEK-293T
[8] = molecular target: T1, Muscarinic acetylcholine receptor M1 (Homo sapiens); test: Positive modulatory activity at human M1 receptor expressed in HEK293T cells assessed as effect on carbachol-induced response by BRET based Gq protein activation assay relative to untreated control; format: cell-based; conditions: HEK-293T
[9] = molecular target: T1, Muscarinic acetylcholine receptor M1 (Homo sapiens); test: Agonist activity at human M1 receptor expressed in HEK293T cells by BRET based Gq protein engagement assay relative carbachol; format: cell-based; conditions: HEK-293T
[10] = molecular target: T3, Muscarinic acetylcholine receptor M1; test: Displacement of [3H]NMS from human M1 receptor expressed in CHO cells by microplate scintillation counting based radioligand binding assay; format: cell-based
[11] = molecular target: T2, Muscarinic acetylcholine receptor M4 (Homo sapiens); test: Agonist activity at human M4 receptor expressed in HEK293T cells by BRET based Gi protein activation assay relative to carbachol; conditions: HEK-293T
[12] = molecular target: T2, Muscarinic acetylcholine receptor M4 (Homo sapiens); test: Agonist activity at human M4 receptor expressed in HEK293T cells by BRET based Gq protein engagement assay relative to carbachol; format: cell-based; conditions: HEK-293T
[13] = molecular target: T1, Muscarinic acetylcholine receptor M1 (Homo sapiens); test: Positive modulatory activity at human M1 receptor expressed in HEK293T cells assessed as effect on carbachol-induced response by BRET based Gq protein engagement assay relative to untreated control; format: cell-based; conditions: HEK-293T
[14] = molecular target: T3, Muscarinic acetylcholine receptor M1; test: Agonist activity at human M1 receptor expressed in HEK293T cells by BRET based Gq protein engagement assay
[15] = molecular target: T5, Muscarinic acetylcholine receptor M4 (Homo sapiens, UniProt P08173); test: Antagonist activity at human M4 receptor expressed in HEK293T cells assessed as inhibition of carbachol-induced response by BRET based Gq protein engagement assay; format: cell-based, HEK-293T
T5 sequence (P08173 whole entry): T2 sequence (whole entry)

[16] = molecular target: T6, Muscarinic acetylcholine receptor M5 (Homo sapiens, UniProt P08912); test: Displacement of [3H]NMS from human M5 receptor expressed in CHO cells by microplate scintillation counting based radioligand binding assay; format: cell-based
T6 sequence (P08912 whole entry): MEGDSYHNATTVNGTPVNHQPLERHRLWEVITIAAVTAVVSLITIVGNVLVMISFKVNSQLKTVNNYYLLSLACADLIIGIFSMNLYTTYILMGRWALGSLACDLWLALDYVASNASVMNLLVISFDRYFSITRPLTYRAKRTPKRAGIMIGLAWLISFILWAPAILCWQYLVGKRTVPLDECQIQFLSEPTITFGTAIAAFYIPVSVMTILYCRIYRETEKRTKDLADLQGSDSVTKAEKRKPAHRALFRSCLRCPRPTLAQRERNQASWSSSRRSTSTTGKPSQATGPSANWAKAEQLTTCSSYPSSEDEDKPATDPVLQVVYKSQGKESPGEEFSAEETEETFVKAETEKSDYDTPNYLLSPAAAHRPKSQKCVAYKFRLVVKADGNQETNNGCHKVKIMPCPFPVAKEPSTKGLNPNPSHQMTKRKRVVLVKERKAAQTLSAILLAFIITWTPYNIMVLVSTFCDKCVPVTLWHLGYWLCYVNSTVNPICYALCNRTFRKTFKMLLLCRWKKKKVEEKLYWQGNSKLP

[17] = molecular target: T5, Muscarinic acetylcholine receptor M4; test: Antagonist activity at human M4 receptor expressed in HEK293T cells assessed as inhibition of carbachol-induced response by beta-arrestin engagement assay; format: cell-based, HEK-293T
[18] = molecular target: T3, Muscarinic acetylcholine receptor M1; test: Positive modulatory activity at human M1 receptor expressed in HEK293T cells assessed as effect on carbachol-induced response by BRET based Gq protein engagement assay; format: cell-based, HEK-293T
[19] = molecular target: T5, Muscarinic acetylcholine receptor M4
[20] = molecular target: T2, Muscarinic acetylcholine receptor M4 (Homo sapiens); test: Antagonist activity at human M4 receptor expressed in HEK293T cells assessed as inhibition of carbachol-induced response by beta-arrestin engagement assay relative to untreated control; format: cell-based; conditions: HEK-293T
[21] = molecular target: T5, Muscarinic acetylcholine receptor M4; test: Displacement of [3H]NMS from human M4 receptor expressed in CHO cells by microplate scintillation counting based radioligand binding assay; format: cell-based
[22] = molecular target: T3, Muscarinic acetylcholine receptor M1; test: Agonist activity at human M1 receptor expressed in HEK293T cells by BRET based Gq protein activation assay; format: cell-based, HEK-293T
[23] = molecular target: T5, Muscarinic acetylcholine receptor M4; test: Agonist activity at human M4 receptor expressed in HEK293T cells by BRET based Gq protein activation assay
[24] = molecular target: T3, Muscarinic acetylcholine receptor M1; format: cell-based, HEK-293T
[25] = molecular target: T3, Muscarinic acetylcholine receptor M1; format: cell-based, HEK-293T; remark: listed apart in the source
[26] = molecular target: T1, Muscarinic acetylcholine receptor M1 (Homo sapiens); test: Agonist activity at human M1 receptor expressed in HEK293T cells by BRET based beta-arrestin engagement assay relative to carbachol; format: cell-based; conditions: HEK-293T
[27] = molecular target: T3, Muscarinic acetylcholine receptor M1; test: Agonist activity at human M1 receptor expressed in HEK293T cells by BRET based beta-arrestin engagement assay

Sequence of Muscarinic acetylcholine receptor M3 (P20309 whole entry): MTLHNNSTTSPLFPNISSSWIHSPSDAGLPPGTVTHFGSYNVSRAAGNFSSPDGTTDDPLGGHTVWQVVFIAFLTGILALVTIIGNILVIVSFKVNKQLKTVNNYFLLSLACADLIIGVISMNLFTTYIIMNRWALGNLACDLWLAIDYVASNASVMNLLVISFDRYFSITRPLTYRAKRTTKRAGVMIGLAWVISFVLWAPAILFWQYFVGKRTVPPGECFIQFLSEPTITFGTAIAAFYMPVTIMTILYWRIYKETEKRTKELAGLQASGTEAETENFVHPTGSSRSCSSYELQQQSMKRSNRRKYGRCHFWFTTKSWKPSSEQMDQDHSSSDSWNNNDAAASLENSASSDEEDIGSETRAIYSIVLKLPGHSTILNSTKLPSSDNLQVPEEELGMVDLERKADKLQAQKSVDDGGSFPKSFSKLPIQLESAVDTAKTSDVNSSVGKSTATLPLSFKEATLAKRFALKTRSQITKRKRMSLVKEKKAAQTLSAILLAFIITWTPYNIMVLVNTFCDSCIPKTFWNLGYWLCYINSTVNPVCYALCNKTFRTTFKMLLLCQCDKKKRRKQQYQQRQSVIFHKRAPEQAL

Compound	Imax [2] [%]	Ki [3] [nM]	Ki [5] [nM]	Imax [7] [%]	Ki [10] [nM]	Ki [16] [nM]	Imax [20] [%]	Ki [21] [nM]	further results
O=C1CCc2ccccc2N1CCCN1CCC(CCCCCCCO)CC1	54	631	209	< 100	355	3090	93	389	Emax [1]: 73%; IC50 [4]: 1150 nM; EC50 [6]: 85.1 nM; Emax [8]: 44%; Emax [9]: 76%; Emax [11]: < 0%; Emax [12]: < 0%; Emax [13]: 21%; EC50 [14]: 229 nM; IC50 [15]: 1480 nM; IC50 [17]: 794 nM; EC50 [18]: 69.2 nM; IC50 [19]: 589 nM; EC50 [22]: 100 nM
CN1CCC=C(c2nsnc2OCCCCCCCCCCCCCC2CCN(CCCN3C(=O)CCc4ccccc43)CC2)C1	–	44.7	85.1	–	44.7	30.9	–	14.5	–
CN1[C@@H]2C[C@@H](OC(=O)[C@H](CO)c3ccccc3)C[C@H]1[C@@H]1O[C@@H]12	< 100	–	–	< 100	–	–	77	–	–
O=C1CCc2ccccc2N1CCCN1CCC(CCCCCCCCCCCO)CC1	–	575	417	–	123	347	–	112	–
O=C1CCc2ccccc2N1CCCN1CCC(CCCCCO)CC1	38	1910	603	72	468	4570	< 100	447	Emax [1]: 53%; EC50 [23]: 2000 nM; IC50 [4]: 28.8 nM; IC50 [24]: 10000 nM; IC50 [25]: 26300 nM; Emax [9]: 58%; Emax [11]: 20%; EC50 [14]: 112 nM; IC50 [15]: 12300 nM; IC50 [17]: 1620 nM; IC50 [19]: 3310 nM; EC50 [22]: 204 nM
O=C1CCc2ccccc2N1CCCN1CCC(CCCCCCCCCO)CC1	< 100	200	214	92	282	851	90	155	Emax [1]: 22%; IC50 [4]: 490 nM; Emax [26]: 50%; IC50 [24]: 19500 nM; IC50 [25]: 10000 nM; Emax [9]: < 0%; Emax [11]: < 0%; Emax [12]: < 0%; IC50 [15]: 589 nM; IC50 [17]: 813 nM; IC50 [19]: 3630 nM; EC50 [22]: 295 nM; EC50 [27]: 245000 nM
O=C1CCc2ccccc2N1CCCN1CCC(CCCO)CC1	–	11700	3240	–	2510	14500	–	589	–
CN1CCN(CC(=O)N2c3ccccc3C(=O)Nc3cccnc32)CC1	< 100	–	–	< 100	–	–	67	–	–
CN1CCC=C(c2nsnc2OCCCCCCCCCCCC2CCN(CCCN3C(=O)CCc4ccccc43)CC2)C1	–	10	89.1	–	11	8.71	–	6.61	–
CN1CCC=C(c2nsnc2OCCCCCCCCCC2CCN(CCCN3C(=O)CCc4ccccc43)CC2)C1	–	1.1	1.7	63	1.02	2.95	< 100	1.07	Emax [1]: 31%; EC50 [23]: 66100 nM; Emax [26]: 81%; IC50 [24]: 148000 nM; IC50 [25]: 14100 nM; Emax [9]: < 0%; Emax [11]: > 100%; Emax [12]: < 0%; IC50 [15]: 2450 nM; IC50 [17]: 95500 nM; EC50 [22]: 871 nM; EC50 [27]: 61700 nM
CN1CCC=C(c2nsnc2OCCCC2CCN(CCCN3C(=O)CCc4ccccc43)CC2)C1	–	93.3	66.1	–	77.6	102	–	26.3	–
O=C1CCc2ccccc2N1CCCN1CCC(CCCCCCCCCC2CCN(CCCN3C(=O)CCc4ccccc43)CC2)CC1	–	57.5	79.4	–	29.5	49	–	32.4	–
CN1CCC=C(c2nsnc2OCCCCCCCCCOc2nsnc2C2=CCCN(C)C2)C1	–	2.88	3.16	–	1.66	3.98	–	0.776	–
O=C1CCc2ccccc2N1CCCN1CCC(CCCCCCCCCCCCCO)CC1	–	339	479	–	186	339	–	95.5	–
